{"source": "patent US9884832B2", "about": "(priority 2011, dated 2018)", "key": {"[1]": {"biological_target": "AM2 V27A (valine→alanine mutation at residue 27 in the M2 protein) (Influenza A virus, UniProt P0DOF5, V27A)", "format": "cell-based, influenza virus A/Udorn/72"}, "[2]": {"biological_target": "AM2 S31N (serine→asparagine mutation at residue 31 in the M2 protein) (Influenza A virus, UniProt P0DOF5, S31N)", "format": "cell-based, influenza virus A/Udorn/72"}}, "note": "Like-named read-outs stand apart in the source and are kept apart here.", "data": [{"compound": "COc1ccc2cc(CNC34CC5CC(CC(C5)C3)C4)sc2c1", "note": "[Example 185a, N-((6-methoxybenzo[b]thiophen-2-yl)methyl)adamantan-1-amine]", "values": [{"measurement": "V27A OOcyte Inhibition at 100 uM (%)", "setting": "[1]", "result": "B (key: (A)=31-95%; (B)=0-30%)"}, {"measurement": "S31N OOcyte Inhibition at 100 uM (%)", "setting": "[2]", "result": "A (key: (A)=31-95%; (B)=0-30%)"}]}, {"compound": "c1coc(CNC23CC4CC(CC(C4)C2)C3)c1", "note": "[Example 69a, Adamantan-1-yl-furan-2-ylmethyl-amine]", "values": [{"measurement": "V27A OOcyte Inhibition at 100 uM (%)", "setting": "[1]", "result": "B (key: (A)=31-95%; (B)=0-30%)"}, {"measurement": "S31N OOcyte Inhibition at 100 uM (%)", "setting": "[2]", "result": "B (key: (A)=31-95%; (B)=0-30%)"}]}, {"compound": "CC(=O)Oc1ccc(CNC23CC4CC(CC(C4)C2)C3)cc1", "note": "[Example 33, Acetic acid 4-(adamantan-1-ylaminomethyl)-phenyl ester]", "values": [{"measurement": "V27A OOcyte Inhibition at 100 uM (%)", "setting": "[1]; pH 5.5", "result": "B (key: (A)=31-95%; (B)=0-30%)"}, {"measurement": "S31N OOcyte Inhibition at 100 uM (%)", "setting": "[2]; pH 5.5", "result": "A (key: (A)=31-95%; (B)=0-30%)"}]}, {"compound": "Oc1ccc(CN2CCC3(CCCCC3)CC2)c(O)c1", "note": "[Example 115, 4-(3-Aza-spiro[5.5]undec-3-ylmethyl)-benzene-1,3-diol]", "values": [{"measurement": "V27A OOcyte Inhibition at 100 uM (%)", "setting": "[1]; pH 5.5", "result": "B (key: (A)=31-95%; (B)=0-30%)"}, {"measurement": "S31N OOcyte Inhibition at 100 uM (%)", "setting": "[2]; pH 5.5", "result": "B (key: (A)=31-95%; (B)=0-30%)"}]}, {"compound": "Fc1ccc(CNC23CC4CC(CC(C4)C2)C3)c(F)c1", "note": "[Example 54, Adamantan-1-yl-(2,4-difluoro-benzyl)-amine]", "values": [{"measurement": "V27A OOcyte Inhibition at 100 uM (%)", "setting": "[1]; pH 5.5", "result": "B (key: (A)=31-95%; (B)=0-30%)"}, {"measurement": "S31N OOcyte Inhibition at 100 uM (%)", "setting": "[2]; pH 5.5", "result": "B (key: (A)=31-95%; (B)=0-30%)"}]}, {"compound": "F[B-](F)(F)c1ccc(CNC23CC4CC(CC(C4)C2)C3)cc1.[K+]", "note": "[Example 2a]", "values": [{"measurement": "V27A OOcyte Inhibition at 100 uM (%)", "setting": "[1]", "result": "A (key: (A)=31-95%; (B)=0-30%)"}, {"measurement": "S31N OOcyte Inhibition at 100 uM (%)", "setting": "[2]", "result": "B (key: (A)=31-95%; (B)=0-30%)"}]}, {"compound": "c1cc(-c2ccc(CNC34CC5CC(CC(C5)C3)C4)s2)co1", "note": "[Example 137a, N-((5-(Furan-3-yl)thiophen-2-yl)methyl)adamantan-1-amine]", "values": [{"measurement": "V27A OOcyte Inhibition at 100 uM (%)", "setting": "[1]", "result": "B (key: (A)=31-95%; (B)=0-30%)"}, {"measurement": "S31N OOcyte Inhibition at 100 uM (%)", "setting": "[2]", "result": "A (key: (A)=31-95%; (B)=0-30%)"}]}, {"compound": "C[Si](C)(C)CCCNCc1ccc(O)cc1O", "note": "[Example 113, 4-[(3-Trimethylsilanyl-propylamino)-methyl]-benzene-1,3-diol]", "values": [{"measurement": "V27A OOcyte Inhibition at 100 uM (%)", "setting": "[1]; pH 5.5", "result": "B (key: (A)=31-95%; (B)=0-30%)"}, {"measurement": "S31N OOcyte Inhibition at 100 uM (%)", "setting": "[2]; pH 5.5", "result": "B (key: (A)=31-95%; (B)=0-30%)"}]}, {"compound": "FC(F)(F)c1ccc(CNC23CC4CC(CC(C4)C2)C3)cc1", "note": "[Example 5a, Adamantan-1-yl-(4-trifluoromethyl-benzyl)-amine]", "values": [{"measurement": "V27A OOcyte Inhibition at 100 uM (%)", "setting": "[1]", "result": "B (key: (A)=31-95%; (B)=0-30%)"}, {"measurement": "S31N OOcyte Inhibition at 100 uM (%)", "setting": "[2]", "result": "B (key: (A)=31-95%; (B)=0-30%)"}]}, {"compound": "c1nc2ccc(CNC34CC5CC(CC(C5)C3)C4)cc2[nH]1", "note": "[Example 94, Adamantan-1-yl-(3H-benzoimidazol-5-ylmethyl)-amine]", "values": [{"measurement": "V27A OOcyte Inhibition at 100 uM (%)", "setting": "[1]; pH 5.5", "result": "B (key: (A)=31-95%; (B)=0-30%)"}, {"measurement": "S31N OOcyte Inhibition at 100 uM (%)", "setting": "[2]; pH 5.5", "result": "B (key: (A)=31-95%; (B)=0-30%)"}]}, {"compound": "Oc1ccc(CNC23CC4CC(CC2C4)C3)c(O)c1", "note": "[Example 111, 4-[(Hexahydro-2,5-methano-pentalen-3a-ylamino)-methyl]-benzene-1,3-diol]", "values": [{"measurement": "V27A OOcyte Inhibition at 100 uM (%)", "setting": "[1]; pH 5.5", "result": "B (key: (A)=31-95%; (B)=0-30%)"}, {"measurement": "S31N OOcyte Inhibition at 100 uM (%)", "setting": "[2]; pH 5.5", "result": "A (key: (A)=31-95%; (B)=0-30%)"}]}, {"compound": "c1ccc2nc(CNC34CC5CC(CC(C5)C3)C4)ccc2c1", "note": "[Example 98, Adamantan-1-yl-quinolin-2-ylmethyl-amine]", "values": [{"measurement": "V27A OOcyte Inhibition at 100 uM (%)", "setting": "[1]; pH 5.5", "result": "B (key: (A)=31-95%; (B)=0-30%)"}, {"measurement": "S31N OOcyte Inhibition at 100 uM (%)", "setting": "[2]; pH 5.5", "result": "A (key: (A)=31-95%; (B)=0-30%)"}]}, {"compound": "c1cc(CNC23CC4CC(CC(C4)C2)C3)cc(-c2ccco2)c1", "note": "[Example 30a, N-(3-(Furan-2-yl)benzyl)adamantan-1-amine]", "values": [{"measurement": "V27A OOcyte Inhibition at 100 uM (%)", "setting": "[1]", "result": "A (key: (A)=31-95%; (B)=0-30%)"}, {"measurement": "S31N OOcyte Inhibition at 100 uM (%)", "setting": "[2]", "result": "B (key: (A)=31-95%; (B)=0-30%)"}]}]}
